From patent US8399503B2, “Spirocyclic azaindole derivatives” (Gruenenthal GmbH, priority 2006, dated 2013)
Structures can show the parent of a compound that is named as a salt.

How the values were obtained:
human μ-opiate receptor = human μ-opiate receptor (Homo sapiens, UniProt P35372); experiment: μ binding: [3H]-naloxone displacement, membrane preparation of CHO-K1 cells expressing the human μ-opiate receptor; conditions: [3H]-naloxone 1 nmole/l; Cheng-Prusoff conversion; read-out: μ-Opioid receptor, Ki value
Sequence of human μ-opiate receptor (P35372 whole entry): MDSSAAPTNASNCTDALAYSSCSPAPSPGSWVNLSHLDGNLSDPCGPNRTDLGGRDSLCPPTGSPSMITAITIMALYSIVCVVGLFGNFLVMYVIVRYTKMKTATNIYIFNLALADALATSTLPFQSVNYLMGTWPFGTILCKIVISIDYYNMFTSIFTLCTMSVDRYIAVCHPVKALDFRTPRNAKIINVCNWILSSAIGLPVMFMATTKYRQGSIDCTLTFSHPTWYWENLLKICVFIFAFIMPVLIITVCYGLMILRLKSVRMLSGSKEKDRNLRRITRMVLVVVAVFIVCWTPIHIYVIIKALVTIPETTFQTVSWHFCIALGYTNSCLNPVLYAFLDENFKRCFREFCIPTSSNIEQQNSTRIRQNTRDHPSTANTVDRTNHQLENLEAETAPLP

melting point [°C]	SMILES	Ki (human μ-opiate receptor) [nM]
163 to 168	CN(C)C1(c2ccccc2)CCC2(CC1)SCCc1c2[nH]c2ccncc12 (stereo not drawn) (as salt: citrate)	
	c1ccc(CC2(N3CCOCC3)CCC3(CC2)OCCc2c3[nH]c3ncccc23)cc1 (stereo not drawn) [Example 19, 4-benzyl-4-morpholino-spiro[cyclohexane-1,8′-(5,6,8,9-tetrahydropyrano[3,4-b]-7-azaindole)]]	2910
246 to 253	CN(C)C1(c2ccccc2)CCC2(CC1)SCCc1c2[nH]c2ncccc12 (stereo not drawn) (as salt: citrate)	
